Paper PMC12127850 (RSC Medicinal Chemistry, 2025)
Structures can show the parent of a compound that is named as a salt.

Experiments:
Format in all cases: cell-based
[1] = biological target: T1, prostate-specific membrane antigen (PSMA) (Homo sapiens, UniProt Q04609); experiment: blocking of […]-PSiMA uptake in LNCaP cells by […] 2-PMPA
[2] = biological target: T1, prostate-specific membrane antigen (PSMA); experiment: in vivo PET blocking of […]-PSiMA uptake in LNCaP tumors
[3] = biological target: T1, prostate-specific membrane antigen (PSMA); experiment: competitive displacement of […]-PSMA-1007 in PSMA-expressing LNCaP cells

T1 sequence (Q04609 whole entry): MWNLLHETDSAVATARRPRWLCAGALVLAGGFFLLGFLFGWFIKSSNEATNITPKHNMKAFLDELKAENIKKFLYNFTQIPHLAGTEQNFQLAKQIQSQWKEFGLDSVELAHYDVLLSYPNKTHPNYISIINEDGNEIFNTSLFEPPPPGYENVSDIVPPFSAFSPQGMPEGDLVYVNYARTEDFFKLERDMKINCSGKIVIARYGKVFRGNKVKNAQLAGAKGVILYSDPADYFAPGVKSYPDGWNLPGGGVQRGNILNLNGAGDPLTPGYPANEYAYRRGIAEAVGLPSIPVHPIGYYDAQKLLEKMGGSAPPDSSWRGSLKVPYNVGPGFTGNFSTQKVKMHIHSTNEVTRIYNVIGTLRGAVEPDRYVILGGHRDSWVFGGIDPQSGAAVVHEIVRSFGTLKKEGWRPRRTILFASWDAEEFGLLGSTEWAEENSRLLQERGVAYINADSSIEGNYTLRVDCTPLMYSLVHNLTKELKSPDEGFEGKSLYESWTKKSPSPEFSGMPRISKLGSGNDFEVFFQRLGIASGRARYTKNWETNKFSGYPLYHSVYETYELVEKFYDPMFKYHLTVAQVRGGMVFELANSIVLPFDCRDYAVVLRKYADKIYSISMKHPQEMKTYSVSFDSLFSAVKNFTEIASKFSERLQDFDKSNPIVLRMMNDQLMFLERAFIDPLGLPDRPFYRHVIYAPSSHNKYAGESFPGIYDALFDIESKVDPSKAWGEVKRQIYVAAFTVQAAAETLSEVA

Compound: O=C(O)CCC(CP(=O)(O)O)C(=O)O (stereo not drawn) [2-PMPA, 2-(phosphonomethyl)pentanedioic acid]
- % blocking at 1 μM [1]: 75 % blocking at 1 μM

Compound: O=C(O)CC[C@H](NC(=O)N[C@@H](CCCCNC(=O)c1ccc(F)nc1)C(=O)O)C(=O)O [DCFPyL]
- % reduction of tumor uptake [2]: 20 ± 10 % reduction of tumor uptake

Compound: CC(C)(C)[Si](F)(c1ccc(C(=O)N[C@H](CC(=O)O)C(=O)N[C@H](CC(=O)O)C(=O)NCC[N+](C)(C)CCn2cc(CCCCCCCCC(=O)NCCCC[C@H](NC(=O)N[C@@H](CCC(=O)O)C(=O)O)C(=O)O)nn2)cc1)C(C)(C)C [compound 14, {2-[(2R)-3-Carboxy-2-[(2R)-3-carboxy-2-({4-[di-tert-butyl(fluoro)silyl]phenyl}formamido)propanamido]propanamido]ethyl}({2-[4-(8-{[(5S)-5-carboxy-5-({[(1S)-1,3-dicarboxypropyl]carbamoyl}amino)pentyl]carbamoyl}octyl)-1H-1,2,3-triazol-1-yl]ethyl})dimethylazanium trifluoroacetate]
- IC50 [3]: 154 ± 47 nM
